# From patent US20150052630A1, “Methods and Compositions for Obtaining Useful Plant Traits” (Board of Regents of the University of Nebraska, priority 2013, published 2015)
# Entries after “also recorded” stand apart in the source; their conditions may differ.
# Tested on: Arabidopsis seedlings (wild type Col-0, epi-line, Col-0/msh1 graft progeny)
# Assay: 5-Azacytidine treatment and root length assay (methylation inhibition assay)
# Assay type: in vivo
# Conditions: 50 μM 5-azacytidine, half-strength MS plates, seedlings transferred 3 days post-germination, root lengths measured at ten days
# From the text: FIG. 27A-C. a, Distribution of msh1 SNPs and indels versus Col-0 across the genome. Each dot represents the number of SNPs and indels found in a window of 50 kbp. Note that the Y-axis has been synchronized with the maximum number found on chr4 to enable comparisons between chromosomes. The region 7,800,000-9,850,0000 bp on chr4, a likely introgressed segment from Ler, contains 8582 of the total 12,771 SNPs and indels. […] Paired-end genome-wide sequencing, alignment and de novo partial assembly of the chm1-1 genome produced 14,416 contigs (n50=40,761 bp) containing 118.5 Mbp; mapping these contigs against Col-0 covers 72 Mbp. Alignment of paired-end reads to the Col-0 public reference sequence produced 95% alignment and identified 12,771 SNPs and indels, with the one 2-Mbp interval, on chromosome 4, accounting for 8,582 and the second on Chromosome 3 accounting for 2200. […]
# Treatment with azacytidine can be used to nullify methylation effects^42. […] Ten days after moving to growth chamber, plates were scanned and root lengths were measured using ImageJ. […]
smiles,measurement,value
Nc1ncn([C@@H]2O[C@H](CO)[C@@H](O)[C@H]2O)c(=O)n1 [5-azacytidine],effect on enhanced epi-line root length,restoration of epi-F3 seedlings to wild type growth levels; also recorded: abolished
